Like-named read-outs stand apart in the source and are kept apart here.
Experiments:
Myzus persicae [1] = assay: Myzus persicae - spray test (Chinese cabbage leaf discs); type: in vivo; details: Myzus persicae, foliar; application rate 500 g/ha, after 5-6 days; read-out: efficacy
Procedure: Myzus persicae—Spray Test
Solvent: 78 parts by weight of acetone • • 1.5 parts by weight of dimethylformamide
(§1) Emulsifier: alkylaryl polyglycol ether
(§2) To produce a suitable active compound preparation, 1 part by weight of active compound is dissolved using the stated parts by weight of solvent and made up with water containing an emulsifier concentration of 1000 ppm until the desired concentration is attained. To produce further test concentrations, the formulation is diluted with emulsifier-containing water.
Discs of Chinese cabbage leaves (Brassica pekinensis) infested by all stages of the green peach aphid (Myzus persicae) are sprayed with an active ingredient formulation of the desired concentration.
After 5-6 days, the efficacy in % is determined. 100% means that all the aphids have been killed; 0% means that no aphids have been killed.

Myzus persicae [2] = assay: Myzus persicae - oral test; type: in vivo; details: Myzus persicae, po, 120 h; application rate 20 ppm, after 5 days; read-out: efficacy
Procedure: (§3) Solvent: 100 parts by weight of acetone
(§4) To produce a suitable preparation of active compound, 1 part by weight of active compound is dissolved using the specified parts by weight of solvent and made up with water until the desired concentration is attained.
(§5) 50 μl of the active compound preparation are transferred into microtitre plates and made up to a final volume of 200 μl with 150 μl of IPL41 insect medium (33%+15% sugar). Subsequently, the plates are sealed with parafilm, which a mixed population of green peach aphids (Myzus persicae) within a second microtitre plate is able to puncture and imbibe the solution through it.
After 5 days, the efficacy in % is determined. 100% means that all the aphids have been killed; 0% means that no aphids have been killed.

Myzus persicae [3] = assay: Myzus persicae - spray test (MYZUPE), Chinese cabbage leaf discs; type: in vivo; details: foliar; for percent efficacy (aphid mortality) at 20 g/ha / Emax at 20 g/ha: 20 g of ai/ha; for percent efficacy (aphid mortality) at 100 g/ha: 100 g of ai/ha; for Emax at 20 g/ha: read-out: % efficacy
Procedure: Myzus persicae—Spray Test (MYZUPE)
Solvent: 78.0 parts by weight of acetone • • 1.5 parts by weight of dimethylformamide
as §1, §2
Discs of Chinese cabbage leaves (Brassica pekinensis) infested by all stages of the green peach aphid (Myzus persicae) are sprayed with an active compound preparation of the desired concentration.
(§6) After the desired period of time, the efficacy in % is determined. 100% means that all the aphids have been killed; 0% means that no aphids have been killed.

Myzus persicae [4] = assay: Myzus persicae - oral test (MYZUPE O); type: in vivo; details: read-out: % efficacy
Procedure: Myzus persicae—Oral Test (MYZUPE O)
as §3, §4, §5, §6

Myzus persicae [5] = assay: Myzus persicae - spray test (MYZUPE S), bell pepper plants; type: in vivo; details: 144 h, 6 dat, read-out: % efficacy
Procedure: Myzus persicae—Spray Test (MYZUPE S)
(§7) Solvent: 14 parts by weight of dimethylformamide
as §1
as §2, with “with” for “using”, “specified” for “stated”, “water. If the addition of ammonium salts or/and penetrants is required, these are each added in a concentration of 1000 ppm to the formulation solution.” for “water.”
Bell pepper plants (Capsicum annuum) severely infested with the green peach aphid (Myzus persicae) are treated by spraying with the active ingredient formulation in the desired concentration.
After the desired time, the kill in % is determined. 100% means that all the animals have been killed; 0% means that no animals have been killed.

Myzus persicae [6] = assay: Myzus persicae - drench test (MYZUPE D), Savoy cabbage in soil; type: in vivo; details: 240 h, 10 dat, read-out: % efficacy
Procedure: Myzus persicae—Drench Test (MYZUPE D)
To produce a suitable active compound preparation, 1 part by weight of active compound is mixed with the specified amounts of solvent and emulsifier, and the concentrate is diluted with water to the desired concentration, it being necessary to include the volume of soil which is drenched in the calculation. It should be ensured that a concentration of 40 ppm of emulsifier in the soil is not exceeded. To produce further test concentrations, water is used for dilution.
Savoy cabbage (Brassica oleracea) in pots with soil and infested by all stages of the green peach aphid (Myzus persicae) is watered with an active compound preparation of the desired concentration.
as §6

Aphis gossypii = Aphis gossypii - spray test (APHIGO S), cotton plants; type: in vivo; details: 144 h, 6 dat, read-out: % efficacy
Procedure: Aphis gossypii—Spray Test (APHIGO S)
as §7, §1
as §2, with “water. If the addition of ammonium salts or/and penetrants is required, these are each added in a concentration of 1000 ppm to the formulation solution.” for “water.”
Cotton plants (Gossypium hirsutum) heavily infested by the cotton aphid (Aphis gossypii) are sprayed with an active ingredient formulation of the desired concentration.
After the desired time, the kill in % is determined. 100% means that all the aphids have been killed; 0% means that no aphids have been killed.

[7] = log P by HPLC on reversed-phase (C18) columns, OECD Guideline 117; type: physicochemical; details: reversed-phase (C18) HPLC column
Procedure: The log P values were determined in accordance with OECD Guideline 117 (EC Directive 92/69/EEC) by HPLC (high-performance liquid chromatography) using reversed-phase (RP) columns (C18), by the following methods:
[a] The LC-MS determination in the acidic range was carried out at pH 2.7 with 0.1% aqueous formic acid and acetonitrile (contains 0.1% formic acid) as mobile phases; linear gradient from 10% acetonitrile to 95% acetonitrile.
[b] LC-MS determination in the neutral range was carried out at pH 7.8 with 0.001 molar aqueous ammonium hydrogencarbonate solution and acetonitrile as mobile phases; linear gradient from 10% acetonitrile to 95% acetonitrile.

[8] = acidic range, pH 2.7, 0.1% aqueous formic acid/acetonitrile, read-out: logP[a]
[9] = neutral range, pH 7.8, aqueous ammonium hydrogencarbonate/acetonitrile, read-out: logP[n]

Row | SMILES | chromatographic logP [7, 8] | chromatographic logP [7, 9] | pest or weed control at 500 g/ha (Myzus persicae [1]) [%] | pest or weed control at 20 ppm (Myzus persicae [2]) [%] | percent efficacy (aphid mortality) at 20 g/ha (Myzus persicae [3]; 120 h, 5 dat) [%] | percent efficacy (aphid mortality) at 100 g/ha (Myzus persicae [3]; 120 h, 5 dat) [%] | Emax at 4 ppm (Myzus persicae [4]; 120 h, 5 dat) [%] | Emax at 0.16 ppm (Myzus persicae [5]) [%] | Emax at 0.16 ppm (Myzus persicae [6]) [%] | Emax at 0.8 ppm (Aphis gossypii) [%] | Emax at 4 ppm (Aphis gossypii; 4 ppm) [%] | Emax at 20 g/ha (Myzus persicae [3]; 120 h, 5 dat) [%] | percent efficacy (aphid mortality) at 100 g/ha (Myzus persicae [3]; 144 h, 6 dat) [%] | Emax at 4 ppm (Myzus persicae [4]; 144 h, 6 dat) [%] | percent kill (mortality) of aphids at a fixed dose at 0.8 ppm (Aphis gossypii) [%] | percent kill (mortality) of aphids at a fixed dose at 4 ppm (Aphis gossypii; 4 ppm) [%]
1 | CSCc1ncc(C(=O)N(C)c2cccnc2)n1C [Example I-1-26] | -0.04 | 0.98 | 100 | 100 | 90 | 90 | 100 | 95 | 90 | 30 | 98 |  |  |  |  | 
2 | CCS(=O)(=O)Cc1ncc(C(=O)N(C)c2cccnc2)n1C [Example I-1-28] | 0.35 | 0.65 | 100 | 100 |  | 90 | 100 | 95 | 95 | 98 | 100 | 100 |  |  |  | 
3 | CC(C)SCc1ncc(C(=O)N(C)c2cccnc2)n1C [Example I-1-29, 2-[(Isopropylsulphanyl)methyl]-N,1-dimethyl-N-(pyridin-3-yl)-1H-imidazole-5-carboxamide] | 0.76 | 1.5 | 90 | 100 |  | 90 | 100 | 99 | 98 | 98 | 100 |  |  |  |  | 
4 | CC(C)S(=O)(=O)Cc1ncc(C(=O)N(C)c2cccnc2)n1C [Example I-1-30, 2-[(Isopropylsulphonyl)methyl]-N,1-dimethyl-N-(pyridin-3-yl)-1H-imidazole-5-carboxamide] | 0.56 | 0.88 | 90 | 100 | 90 | 90 | 100 | 98 | 98 | 100 | 100 |  |  |  |  | 
5 | CC(C)CSCc1ncc(C(=O)N(C)c2cccnc2)n1C [Example I-1-31, 2-[(isobutylsulphanyl)methyl]-N,1-dimethyl-N-(pyridin-3-yl)-1H-imidazole-5-carboxamide] | 1.18 | 1.84 | 100 | 100 | 90 | 90 | 100 | 99 | 95 | 100 | 100 |  |  |  |  | 

Second part, led by results:

Row | chromatographic logP [7, 8] | chromatographic logP [7, 9] | SMILES | pest or weed control at 500 g/ha (Myzus persicae [1]) [%] | pest or weed control at 20 ppm (Myzus persicae [2]) [%] | percent efficacy (aphid mortality) at 20 g/ha (Myzus persicae [3]; 120 h, 5 dat) [%] | percent efficacy (aphid mortality) at 100 g/ha (Myzus persicae [3]; 120 h, 5 dat) [%] | Emax at 4 ppm (Myzus persicae [4]; 120 h, 5 dat) [%] | Emax at 0.16 ppm (Myzus persicae [5]) [%] | Emax at 0.16 ppm (Myzus persicae [6]) [%] | Emax at 0.8 ppm (Aphis gossypii) [%] | Emax at 4 ppm (Aphis gossypii; 4 ppm) [%] | Emax at 20 g/ha (Myzus persicae [3]; 120 h, 5 dat) [%] | percent efficacy (aphid mortality) at 100 g/ha (Myzus persicae [3]; 144 h, 6 dat) [%] | Emax at 4 ppm (Myzus persicae [4]; 144 h, 6 dat) [%] | percent kill (mortality) of aphids at a fixed dose at 0.8 ppm (Aphis gossypii) [%] | percent kill (mortality) of aphids at a fixed dose at 4 ppm (Aphis gossypii; 4 ppm) [%]
6 | 1.05 | 1.26 | CC(C)CS(=O)(=O)Cc1ncc(C(=O)N(C)c2cccnc2)n1C [Example I-1-32] | 90 | 100 |  | 70 | 100 | 98 | 98 | 98 | 97 |  |  |  |  | 
7 | 0.75 | 1.03 | CN(C(=O)c1cnc(CS(=O)(=O)C(C)(C)C)n1C)c1cccnc1 [Example I-1-34] | 100 | 100 | 90 | 90 | 100 | 45 | 90 | 85 | 95 |  |  |  |  | 
8 | 0.96 | 1.57 | CN(C(=O)c1cnc(CSCC2CC2)n1C)c1cccnc1 [Example I-1-35] | 100 | 100 | 90 | 90 | 100 | 100 | 98 | 99 | 100 |  |  |  |  | 
9 | 1.42 | 2.06 | CN(C(=O)c1cnc(CSCC(C)(C)C)n1C)c1cccnc1 [Example I-1-36] | 90 | 100 | 90 | 90 | 100 | 75 | 80 | 98 | 98 |  |  |  |  | 
10 | 0.35 | 0.75 | CN(C(=O)c1cnc(Cn2nccn2)n1C)c1cccnc1 [Example I-1-47] | 100 | 100 |  |  |  | 90 | 90 | 100 | 100 |  | 90 | 100 |  | 
11 | 0.71 | 1.04 | CN(C(=O)c1cnc(CS(=O)(=O)CC2CC2)n1C)c1cccnc1 [Example I-1-48] | 100 | 100 | 100 | 100 | 100 | 99 | 90 |  |  |  |  |  | 100 | 100
12 | 0.71 |  | CCSCc1ncc(C(=O)N(CC)c2cccnc2)n1C [Example I-1-49] | 90 | 100 | 70 | 70 | 100 | 95 | 95 | 98 | 100 |  |  |  |  | 
13 | 1.1 | 1.73 | CCN(C(=O)c1cnc(CSC(C)C)n1C)c1cccnc1 [Example I-1-50] | 90 | 100 |  | 90 | 100 | 100 | 98 |  | 95 | 70 |  |  | 90 | 

Source: US10689365B2, “Substituted 2-alkylimidazolylcarboxamides as pesticides” (Bayer CropScience Aktiengesellschaft, priority 2016, dated 2020)
